Test results reported in patent publication US11434250B2, “Pyrazolo[1,5a]pyrimidine derivatives as IRAK4 modulators” (Genentech, Inc., priority 2017, dated 2022).
≈ marks a conversion by molar mass, not a printed value.

Assays:
[1] = molecular target: human IRAK4 (Homo sapiens (Human), UniProt Q9NWZ3); test: IRAK4 enzymatic assay (Transcreener fluorescence polarization, ADP detection); assay type: biochemical; conditions: recombinant full-length IRAK4; 125 uM ATP; 90 min
Protocol: Compounds were assayed for inhibition of human IRAK4 and IRAK1 catalytic activity using recombinant enzyme produced from insect cells. Full-length IRAK4 protein, carrying an N-terminal His6-Tag, was obtained from Life Technologies (Carlsbad, Calif., USA). The IRAK1 construct was produced internally and was comprised of IRAK1 residues Arg194 to Ser712, preceded by an NH2-terminal His6 tag and the coding sequence for glutathione-S-transferase.
Kinase activities were assayed using the Transcreener-Fluorecescence polarization platform (BelBrook Labs, Madison, Wis., USA) that measures amounts of the reaction product, ADP. […] Final IRAK4 assay conditions were 1.25 nM IRAK4; 125 uM ATP; 10 uM MgC2; 125 uM peptide in reaction buffer (25 mM HEPES (pH7.4); 2 mM Dithiothreitol; 0.015% Brij-35; and 0.5% dimethyl sulfoxide. The IRAK1 activity was optimized similarly, yielding final assay conditions of […] IRAK1; 62.5 uM ATP; 5 uM MgCl2, and 62.5 uM IRAK1 peptide in reaction buffer for 60 min.
Assays of compounds for kinase inhibition were performed using inhibitors serially-diluted in dimethyl sulfoxide, which was accomplished with a LabCyte Echo 555 liquid dispenser. 384 well assay plates spotted with compound received 4 ul of a 2× substrate (ATP+peptide) mix in reaction buffer, followed by 4 ul of 2× enzyme diluted in reaction buffer. Reactions were halted at 60 (IRAK1) or 90 (IRAK4) min by addition of 6 ul of detection buffer, containing EDTA ([…] final concentration), 0.95 ug of the ADP-binding antibody ADP2, ADP tracer (3 nM final concentration), and […] HEPES. Following a 1 hr incubation, fluorescence polarization of the ADP2-antibody::TRACER complex was read on a Tecan M1000 plate reader using a 635/20 excitation filter in combination with a 670/20 emission filter. Delta milli-P values were analyzed using Genedata software to fit dose-response curves and compute compound Ki values, using ATP Km values of 642 um and 83.2 uM for IRAK4 and IRAK1, respectively. Table 3 provides IRAK4 Ki values for representative compounds of the present invention.

[2] = Plasma protein binding using rapid equilibrium dialysis (RED); assay type: in vitro ADME; conditions: pH 7.4, human plasma, 37° C., read-out: Human PPB (converted)
Protocol: Plasma protein binding was measured in duplicate using rapid equilibrium dialysis (RED) device ((Thermo Scientific Pierce) in a 96-well format. Briefly, 10.0 μL drug or control compounds (0.5 mM in DMSO) was mixed with 1000 μL plasma (pH adjusted to 7.4) from various species (BioreclamationIVT). Aliquots of 300 μL drug/plasma mixture were placed into the donor side chamber of a single-use RED plate, and 500 μL aliquots of PBS buffer were placed into the adjacent chamber as the receiver side. The plate was incubated on an orbital shaker at 400 rpm, at 37° C. for 4 hours. After completion of incubation, 50 μL aliquots from the PBS buffer side were mixed with 5 μL of blank plasma matrix, and 5 μL from the donor side (plasma) were mixed with 50 μL blank PBS buffer. All samples were then crashed with 200 μL acetonitrile (containing internal standard) to precipitate plasma proteins. The samples were centrifuged at 3750 rpm for 10 min to pellet the proteins. The supernatants were carefully transferred to a fresh 96-well plate, and diluted with an equivalent volume of water. The samples were then analyzed by LC-MS/MS (ABI 4000, ABI Sciex). Data acquisition and processing was performed with Analyst 1.6.1 and Multiquant 2.1. The percent of protein binding and fraction unbound (fu) in matrix was calculated from taking the ratio of responses (peak areas) on the receiver side (buffer) to those on the donor side (plasma). The ratios were normalized to the internal standard.

[3] = Kinetic solubility assay; assay type: physicochemical; conditions: for solubility kinetic at 24 h: PBS buffer with 2% DMSO, aqueous buffer, kinetic from dmso stock, PBS buffer pH 7.4, 2% DMSO, 24 hours shaking at room temperature, UHPLC-CLND; for Fold improvement in kinetic solubility: example compound versus its matched pair phenyl compound
Protocol: The kinetic solubility assay started with compound DMSO stock solutions. This assay used Millipore Multiscreen 96-well filter plates for the 24 hour equilibration shaking. Samples were prepared by adding 4 μL of the 10 mM compound DMSO stock solutions into 196 μL of PBS buffer pH 7.4 in the 96-well filter plates, yielding a compound concentration of 200 μM and 2% DMSO. The filter plate was sealed with aluminum sealing film and shaken at room temperature for 24 hours at 1000 rpm. When shaking has completed, the solutions were filtered into a clean 96-well plate utilizing a vacuum manifold. After filtration, some precipitate is often observed at the bottom of the filtration plate wells. Most of the precipitates appear to be crystalline under a polarizing light microscope. The filtrate samples were diluted by a factor of 2 using PBS pH7.4 buffer and then transferred to a 384-well plate for analysis by UHPLC-CLND (CLND: Chemiluminescence nitrogen detector). 5 μL of each sample was injected twice into the UHPLC-CLND for two repeat analysis.
Samples were detected and analyzed using UV 254 nm and CLND. UV 254 nm is used primarily to confirm the sample purity but in rare cases, is also used to quantify the concentration of compounds with no nitrogens, where additional work is done to create a compound specific calibration curve. The identification of CLND target peaks of each compound were confirmed by LCMS. Sample quantification was accomplished by CLND peak intensity, the calibration curve, and the number of nitrogen contained in the compound. One calibration curve of caffeine was used for solubility quantitative determination. A fresh calibration curve was created for every batch. The number of nitrogens in a compound used for this quantification was corrected for the actual configuration of the nitrogen in the compound.

human IRAK4, sequence (Q9NWZ3 whole entry, the tested form may be a part): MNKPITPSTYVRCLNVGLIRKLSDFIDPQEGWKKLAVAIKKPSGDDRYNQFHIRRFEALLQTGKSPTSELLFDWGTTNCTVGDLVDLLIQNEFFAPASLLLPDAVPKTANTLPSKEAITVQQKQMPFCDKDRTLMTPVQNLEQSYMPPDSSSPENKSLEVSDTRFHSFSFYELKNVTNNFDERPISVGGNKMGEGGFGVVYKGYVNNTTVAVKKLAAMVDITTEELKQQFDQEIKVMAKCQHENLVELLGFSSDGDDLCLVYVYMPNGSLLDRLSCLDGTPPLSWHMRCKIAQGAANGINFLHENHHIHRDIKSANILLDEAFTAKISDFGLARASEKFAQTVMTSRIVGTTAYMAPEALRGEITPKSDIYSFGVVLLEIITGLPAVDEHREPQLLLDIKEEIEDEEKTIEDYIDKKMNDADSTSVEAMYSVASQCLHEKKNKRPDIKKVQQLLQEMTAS

| Structure (SMILES) | Ki [1] [nM] | fraction unbound at 4 h, 5 µM [2] | solubility kinetic at 24 h [3] [µM] | Fold improvement in kinetic solubility [3] |
| --- | --- | --- | --- | --- |
| CC1(C)Cc2cc(NC(=O)c3cnn4cccnc34)c(N3CCN(CC(N)=O)CC3)nc2O1 [Example 6, N-[6-[4-(2-amino-2-oxo-ethyl)piperazin-1-yl]-2,2-dimethyl-3H-furo[2,3-b]pyridin-5-yl]pyrazolo[1,5-a]pyrimidine-3-carboxamide] | 4 | 0.226 | 143 (≈ 64.4 µg/mL) | 14.6 |
| CC1(C)Cc2cc(NC(=O)c3cnn4cccnc34)c(N3CCN(CC(F)F)CC3)nc2O1 [Example 9, N-(6-(4-(2,2-Difluoroethyl)piperazin-1-yl)-2,2-dimethyl-2,3-dihydrofuro[2,3-b]pyridin-5-yl)pyrazolo[1,5-a]pyrimidine-3-carboxamide] | 7.6 | 0.123 | 137 (≈ 62.7 µg/mL) | 137.0 |
